From patent US9102698B2 (CAN-FITE BIOPHARMA LTD., priority 2007, dated 2015)

What was measured:
[1] = test system: tumors (melanoma, colon carcinoma, prostate carcinoma); conditions: orally administered; syngeneic (melanoma, colon carcinoma) and xenograft (colon and prostate carcinoma) mouse models; cited from earlier work
[2] = test system: neutrophils; conditions: oral, mice, cited from earlier work
[3] = test system: colon carcinoma; conditions: oral, nude mice; cited from earlier work
[4] = test system: TNF-α and MIP-1α; conditions: in vitro; cited from earlier work
[5] = test system: collagen and adjuvant induced arthritis (AIA); conditions: experimental animal models; cited from earlier work
[6] = test system: A3AR; conditions: synovial and peripheral blood mononuclear cells of AIA rats, upon IB-MECA treatment; cited from earlier work
[7] = Solubility study on 3-iodobenzylamine hydrochloride in synthesis solvents; assay type: physicochemical
Excerpt: 3-Iodobenzylamine hydrochloride recrystallized from protic solvents but was insoluble in aprotic organic solvents. No purity enhancement was observed during hot (reflux) slurries in aprotic organic solvents.

Row | Structure (SMILES) | development of tumors [1] | cytotoxic-induced myelo-toxicity [2] | production of neutrophils ([2]; via an increase in G-CSF) | neutrophil recovery after cytotoxic drug therapy [3] | progression of colon carcinoma [3] | production of MIP-1α [4] | production of TNF-α [4] | development of collagen and adjuvant induced arthritis [5] | A3AR level [6] | Behavior at 21 C. ([7]; IPA, 10 solvent volumes) | Behavior at reflux ([7]; IPA, 10 solvent volumes) | Behavior at 21 C. ([7]; IPAc, 10 solvent volumes) | Behavior at reflux ([7]; IPAc, 10 solvent volumes) | Behavior at 21 C. ([7]; MeCN, 5 solvent volumes) | Behavior at reflux ([7]; MeCN, 5 solvent volumes) | Behavior at 21 C. ([7]; MeOH, 1 solvent volume) | Behavior at reflux ([7]; MeOH, 1 solvent volume) | Behavior at 21 C. ([7]; THF, 10 solvent volumes) | Behavior at reflux ([7]; THF, 10 solvent volumes)
1 | CNC(=O)[C@H]1O[C@@H](n2cnc3c(NCc4cccc(I)c4)ncnc32)[C@H](O)[C@@H]1O [IB-MECA, 1-deoxy-1-(6-{[(3-iodophenyl)methyl]amino}9H-purine-9-yl)-N-methyl-β-d-ribofuranuronamide] | inhibits the development of tumors | protects against cytotoxic-induced myelo-toxicity | stimulates the production of neutrophils | stimulates neutrophil recovery | inhibits progression of colon carcinoma | inhibited | inhibited | preventing the development | down regulates | – | – | – | – | – | – | – | – | – | –
2 | Cl.NCc1cccc(I)c1 [3-iodobeuzylamine hydrochloride, 3-iodobenzylamine hydrochloride] | – | – | – | – | – | – | – | – | – | Insoluble | Soluble | Insoluble | Insoluble | Insoluble | Insoluble | Insoluble | Soluble | Insoluble | Insoluble
